# Reference: PMC6277767, “Broad and Region-Specific Impacts of the Synthetic Cannabinoid CP 55,940 in Adolescent and Adult Female Mouse Brains” (Frontiers in Molecular Neuroscience, 2018)
# Test system: CD1 female mouse brain lipidome
# Experiment: Brain-region lipid levels (HPLC/MS/MS lipidomics) 2 h after single i.p. 3 mg/kg CP 55,940 vs vehicle
# Type: in vivo
# Parameters: N-arachidonoyl phenylalanine level, Mean / N-stearoyl tryptophan level, Mean / N-stearoyl proline level, Mean / N-stearoyl leucine level, Mean / N-stearoyl phenylalanine level, Mean / N-stearoyl serine level, Mean / N-stearoyl methionine level, Mean: unit: moles per gram
# Procedure: The Bloomington Institutional Animal Care and Use Committee of Indiana University reviewed and approved the animal procedures. Female mice from the CD1 strain were utilized to match our study examining THC’s effects on the brain lipidome ([Leishman et al., 2018]). Mice were given a single i.p. injection of either 3 mg/kg CP or 1:1:18 cremophor:ethanol:saline vehicle (please refer to the section “3 mg/kg CP Is Relevant for Synthetic Cannabinoid Abuse and Has Stronger Effects on the Female Mouse Brain Lipidome During Adolescence” for a justification of dose and use of female mice). Three different age groups were given injections: PND 35 and PND 50 adolescents, and adult mice (PND 113). At least eight mice in each age group received CP and at least eight received vehicle. Matching the THC study time course ([Leishman et al., 2018]), mice were sacrificed via rapid decapitation 2 h after injection. Brains were immediately removed and flash-frozen in liquid nitrogen, and then stored at -80°C until dissections were performed. Brains were dissected on an ice-cold dissection plate into the following regions: STR, HIPP, CER, THAL, CTX, HYP, MID, and STEM. These abbreviations for these brain areas will be used exclusively when discussing the results generated by these specific dissections. Each dissected area was immediately placed in liquid nitrogen and then stored at -80°C until used for lipid extraction.
# Tissue extracts were performed as previously described ([Bradshaw et al., 2006]; [Stuart et al., 2013]; [Raboune et al., 2014]; [Leishman et al., 2016a],[b], [2017], [2018]). First, samples were shock frozen in liquid nitrogen, weighed, and transferred to a centrifuge tube. The mass of the largest sample was multiplied by 50 to determine how many milliliters of HPLC-grade methanol (Fisher, Fair Lawn, NJ, United States) to add. Then, samples were spiked with 500 pmol deuterium-labeled NAGly (d8NAGly; Cayman Chemical, Ann Arbor, MI, United States). Samples were placed on ice in darkness for 2 h then individually homogenized and centrifuged at 19,000 × g for 20 min at 20°C. Supernatants were diluted with HPLC water (purified in house) to make a solution of 75% water, 25% supernatant. Lipids were partially purified on C18 solid phase extraction columns (Agilent, Palo Alto, CA, United States). A series of four elutions with 1.5 mL of 60%, 75%, 85%, and 100% methanol were collected ([Stuart et al., 2013]; [Leishman et al., 2016a],[b], [2018]).
# As previously described ([Bradshaw et al., 2006]; [Tan et al., 2006]; [Smoum et al., 2010]; [Stuart et al., 2013]; [Tortoriello et al., 2013]; [Raboune et al., 2014]; [Leishman et al., 2016a],[b], [2017], [2018]), samples were analyzed using an Applied Biosystems API 3000 triple quadrupole mass spectrometer with electrospray ionization (Foster City, CA, United States). Using an Agilent XDB-C18 reversed phase analytical column and optimized mobile phase gradients, 20 μL from each elution were chromatographed. Two Shimadzu 10ADvp pumps (Columbia, MD, United States) provided the pressure for gradient elution. Mobile phase A: 20% methanol, 80% water (v/v) and 1 mM ammonium acetate (Sigma, St. Louis, MO, United States). Mobile phase B: 100% methanol, 1 mM ammonium acetate. Every method run began with 0% mobile phase B, reached 100% mobile phase B flowing at 0.2 mL/min, and gradually returned to 0% mobile phase B.
# This screening library will be referred to as the lipidome when discussing data from this study. HPLC/MS/MS data were analyzed using Analyst software (Applied Biosystems) ([Bradshaw et al., 2006]; [Tan et al., 2006]; [Stuart et al., 2013]; [Tortoriello et al., 2013]; [Raboune et al., 2014]; [Leishman et al., 2016a],[b], [2017], [2018]). Chromatograms (Supplementary Figure 3) were generated by determining the retention time of analytes from the analytical column with a [M-1] or [M+1] parent peak and a fragmentation peak corresponding to the programmed values. […]
# [1] = adult hypothalamus, 3mg/kg CP 55,940, p .001
# [2] = adult hypothalamus, 3mg/kg CP 55,940, p .002
# [3] = adult hypothalamus, 3mg/kg CP 55,940, p .005
# [4] = adult hypothalamus, 3mg/kg CP 55,940, p .020
# [5] = adult hypothalamus, 3mg/kg CP 55,940, p .036
# [6] = adult hypothalamus, 3mg/kg CP 55,940, p .060
# [7] = adult hypothalamus, 3mg/kg CP 55,940, p .073
# [8] = adult midbrain, 3mg/kg CP 55,940
# [9] = adult midbrain, 3mg/kg CP 55,940, p .000
# [10] = adult midbrain, 3mg/kg CP 55,940, p .003
# [11] = adult midbrain, 3mg/kg CP 55,940, p .023
smiles,measurement,setting,value
"CCCCCCC(C)(C)c1ccc([C@@H]2C[C@H](O)CC[C@H]2CCCO)c(O)c1 [CP 55,940]","THC level, Mean","adult hypothalamus, 3 mg/kg CP 55,940",BDL
same,PGF2α Direction (relative to Veh),[1],↓
same,PGF2α Magnitude (x Veh level),[1],0.79
same,phosphoLEA Direction (relative to Veh),[2],↓
same,phosphoLEA Magnitude (x Veh level),[2],0.74
same,6-ketoPGF1α Direction (relative to Veh),[3],↓
same,6-ketoPGF1α Magnitude (x Veh level),[3],0.61
same,N-palmitoyl phenylalanine Direction (relative to Veh),[4],↑
same,N-palmitoyl phenylalanine Magnitude (x Veh level),[4],1.86
same,PGE2 Direction (relative to Veh),[5],↑
same,PGE2 Magnitude (x Veh level),[5],1.18
same,N-arachidonoyl taurine Direction (relative to Veh),[6],↑
same,N-arachidonoyl taurine Magnitude (x Veh level),[6],1.24
same,N-arachidonoyl GABA Direction (relative to Veh),[7],↓
same,N-arachidonoyl GABA Magnitude (x Veh level),[7],0.83
same,"2-arachidonoyl glycerol level, Mean",[8],3.47E-09
same,"2-linoleoyl glycerol level, Mean",[8],3.28E-10
same,"2-oleoyl glycerol level, Mean",[8],4.34E-09
same,"2-palmitoyl glycerol level, Mean",[8],8.64E-11
same,"6-ketoPGF1α level, Mean",[8],3.28E-11
same,"11-OH-THC level, Mean",[8],BDL
same,"11-nor-9-carboxyTHC level, Mean",[8],BDL
same,"Arachidonic acid level, Mean",[8],5.39E-10
same,"Cannabidiol level, Mean",[8],BDL
same,"Linoleic acid level, Mean",[8],2.55E-10
same,"N- stearoyl valine level, Mean",[8],3.08E-14
same,"N-arachidonoyl GABA level, Mean",[8],2.05E-11
same,"N-arachidonoyl alanine level, Mean",[8],8.5E-13
same,"N-arachidonoyl dopamine level, Mean",[8],BDL
same,"N-arachidonoyl ethanolamine level, Mean",[8],1.42E-11
same,"N-arachidonoyl glycine level, Mean",[8],7.94E-13
same,"N-arachidonoyl phenylalanine level, Mean",[8],2.39E-13
same,"N-arachidonoyl proline level, Mean",[8],BDL
same,"N-arachidonoyl serine level, Mean",[8],4.34E-13
same,"N-arachidonoyl taurine level, Mean",[8],5.5E-11
same,"N-arachidonoyl tryptophan level, Mean",[8],BDL
same,"N-arachidonoyl tyrosine level, Mean",[8],1.09E-12
same,"N-docosahexaenoyl GABA level, Mean",[8],8.66E-12
same,"N-docosahexaenoyl ethanolamine level, Mean",[8],3.34E-11
same,"N-docosahexaenoyl glycine level, Mean",[8],1.02E-13
same,"N-docosahexaenoyl methionine level, Mean",[8],BDL
same,"N-docosahexaenoyl phenylalanine level, Mean",[8],1.11E-13
same,"N-docosahexaenoyl proline level, Mean",[8],BDL
same,"N-docosahexaenoyl tryptophan level, Mean",[8],BDL
same,"N-linoleoyl alanine level, Mean",[8],4.8E-13
same,"N-linoleoyl ethanolamine level, Mean",[8],1.5E-11
same,"N-linoleoyl glycine level, Mean",[8],4.47E-14
same,"N-linoleoyl methionine level, Mean",[8],BDL
same,"N-linoleoyl proline level, Mean",[8],BDL
same,"N-linoleoyl serine level, Mean",[8],2.09E-11
same,"N-linoleoyl tryptophan level, Mean",[8],BDL
same,"N-linoleoyl tyrosine level, Mean",[8],BDL
same,"N-nervonoyl valine level, Mean",[8],BDL
same,"N-oleoyl GABA level, Mean",[8],1.69E-11
same,"N-oleoyl alanine level, Mean",[8],2.56E-12
same,"N-oleoyl dopamine level, Mean",[8],BDL
same,"N-oleoyl ethanolamine level, Mean",[8],3.41E-10
same,"N-oleoyl glycine level, Mean",[8],4.95E-13
same,"N-oleoyl leucine level, Mean",[8],1.1E-12
same,"N-oleoyl phenylalanine level, Mean",[8],1.49E-12
same,"N-oleoyl proline level, Mean",[8],BDL
same,"N-oleoyl serine level, Mean",[8],1.28E-10
same,"N-oleoyl tryptophan level, Mean",[8],BDL
same,"N-oleoyl tyrosine level, Mean",[8],7.3E-13
same,"N-oleoyl valine level, Mean",[8],2.38E-14
same,"N-palmitoyl GABA level, Mean",[8],2.91E-11
same,"N-palmitoyl alanine level, Mean",[8],1.61E-12
same,"N-palmitoyl ethanolamine level, Mean",[8],6.9E-11
same,"N-palmitoyl glycine level, Mean",[8],1.85E-12
same,"N-palmitoyl leucine level, Mean",[8],2.19E-12
same,"N-palmitoyl methionine level, Mean",[8],2.91E-12
same,"N-palmitoyl phenylalanine level, Mean",[8],1.17E-12
same,"N-palmitoyl proline level, Mean",[8],BDL
same,"N-palmitoyl tryptophan level, Mean",[8],BDL
same,"N-palmitoyl tyrosine level, Mean",[8],1.01E-12
same,"N-palmitoyl valine level, Mean",[8],1.76E-13
same,"N-stearoyl GABA level, Mean",[8],1.9E-11
same,"N-stearoyl alanine level, Mean",[8],2.08E-12
same,"N-stearoyl ethanolamine level, Mean",[8],1.35E-11
same,"N-stearoyl glycine level, Mean",[8],2.96E-12
same,"N-stearoyl leucine level, Mean",[8],1.09E-12
same,"N-stearoyl methionine level, Mean",[8],4.14E-13
same,"N-stearoyl phenylalanine level, Mean",[8],7.89E-13
same,"N-stearoyl proline level, Mean",[8],BDL
same,"N-stearoyl serine level, Mean",[8],1.92E-11
same,"N-stearoyl tryptophan level, Mean",[8],BDL
same,"Oleic acid level, Mean",[8],4.73E-10
same,"PGE2 level, Mean",[8],2.39E-10
same,"PhosphoLEA level, Mean",[8],2.38E-11
same,"THC level, Mean",[8],BDL
same,"2-arachidonoyl glycerol, Direction (relative to Veh)",[9],↓
same,"2-arachidonoyl glycerol, Magnitude (x Veh level)",[9],0.80
same,"2-oleoyl glycerol, Direction (relative to Veh)",[9],↓
same,"2-oleoyl glycerol, Magnitude (x Veh level)",[9],0.74
same,"Arachidonic acid, Direction (relative to Veh)",[9],↓
same,"Arachidonic acid, Magnitude (x Veh level)",[9],0.78
same,2-linoleoyl glycerol Direction (relative to Veh),[10],↓
same,2-linoleoyl glycerol Magnitude (x Veh level),[10],0.77
same,phosphoLEA Direction (relative to Veh),[10],↓
same,phosphoLEA Magnitude (x Veh level),[10],0.70
same,"N-palmitoyl ethanolamine, Direction (relative to Veh)",[11],↓
same,"N-palmitoyl ethanolamine, Magnitude (x Veh level)",[11],0.82
